PMC8080777, “Discovery, optimization, and evaluation of non-bile acid FXR/TGR5 dual agonists” (Scientific Reports, 2021)

Tested on: GLP-1
Assay: In vivo GLP-1 secretion after glucose challenge
Set-up: species or system C57 mice
Details: for Plasma GLP-1 levels: single oral 100 mg/kg, overnight-fasted C57 mice, 2 g/kg glucose one hour later, blood 15 min after challenge
Method: Measurement of GLP-1 secretion: To measure plasma GLP-1 levels, 100 mg/kg of compounds 20p and 20q were administered orally to overnight-fasted C57 mice (n = 5 animals/group). One hour later, all mice were challenged with 2 g/kg glucose, and blood samples were collected after 15 min of glucose challenge test. Plasma GLP-1 levels were measured using the GLP-1 ELISA Kit Wako, High Sensitive (FUJIFILM Wako Pure Chemical Corporation, Osaka city, Osaka, Japan)[56].
Amersham Place Little Chalfont Buckinghamshire, HP7 9NA UK), and cDNA was synthesized using ReverTra Ace qPCR RT Master Mix (Toyobo Co., Ltd., Osaka City, Osaka, Japan). Real-time PCR was performed using a CFX96 Touch Real-Time PCR Analysis System (CFX Manager, Bio-Rad, 1000 Alfred Nobel Drive, Hercules, CA, USA), and the mRNA expression levels of SHP and CYP7A1, the target gene s of FXR, were measured using the intercalator […]
In vivo assay protocol (GLP-1)
Measurement of GLP-1 secretion: To measure plasma GLP-1 levels, 100 mg/kg of compounds 20p and 20q were administered orally to overnight -fasted C57 mice (n=5 animals/group). One hour later, all mice were challenged with 2 g/kg glucose, and blood samples were collected after 15 min of glucose challenge test. Plasma GLP-1 levels were measured using the GLP-1 ELISA Kit Wako, High Sensitive (FUJIFILM Wako Pure Chemical Corporation, Osaka city, Osaka, […]
In vivo assay protocol (OGTT test)
To measure blood glucose levels, 100 mg/kg of test compounds 20p and 20q or vehicle were administered orally to overnight-fasted C57 mice (n=5 mice/group, control; n=10). One hour later, all mice were challenged with 2 g/kg glucose, and blood samples were collected after 15 min of glucose loading. The blood glucose levels were measured using LabAssay Glucose (FUJIFILM Wako Pure Chemical Corporation, Osaka City, Osaka, Japan).5
In vivo in-house animal guidelines
Study protocols were designed and refined by taking reduction of animal use into consideration. […]

| Structure (SMILES) | Serum GLP-1 (single dose, wild-type mice) | Plasma GLP-1 levels |
| --- | --- | --- |
| COC(=O)/C=C/c1cccc(N(Cc2ccc(-c3ccc(N(C)C)cc3)cc2)C(=O)C2CCCCC2)c1 [Compound 7, Fexaramine, reference compound] | did not increase serum GLP-1 |  |
| COc1cc(Cl)cc(N(CC23CCC(c4ccc(OC)c(C#N)c4)(CC2)CC3)C(=O)c2ccncc2C)c1 [Compound 20p] |  | significantly increased the plasma levels of GLP-1 |
| COc1ccc(C23CCC(CN(C(=O)c4ccncc4C)c4cc(Cl)cc(Cl)c4)(CC2)CC3)cc1C#N [Compound 20q] |  | significantly increased the plasma levels of GLP-1 |
